Experimental data from article PMC7998926 (Microorganisms, 2021).
Several values for one entry are separate records, joined by “and”; a condition that tells them apart may be missing. Identical values can stand only once. Entries after “also recorded” stand apart in the source; their conditions may differ. Like-named read-outs stand apart in the source and are kept apart here.

Tests used:
EBOV [1] = experiment: microbe, parasite or virus in culture; type: cell-based, Ebola virus; details: Zaire ebolavirus, read-out: IC50 (average) (μM)
EBOV/Mak [2] = details: cited from earlier work; for IC50: read-out: IC50 (Huh7)
[3] = human, in vivo, po, cited from earlier work
EBOV [4] = details: mouse, in vivo, cited from earlier work
EBOV [5] = tested on: EBOV; parameters: species or system Ebola virus
in vivo [6] = details: female, C57BL/6, mouse, po
[7] = mouse, in vivo
[8] = mouse, in vivo; cited from earlier work
VSV-EBOV-GPΔ-Luc = type: cell-based
EBOV/Mak [9] = type: cell-based, Ebola virus
EBOV [10] = details: read-out: IC50 (HepG2); cited from earlier work
[11] = C57BL/6, mouse, in vivo, po; for Cmax obtained relative to prediction, fold higher: female
MARV = details: mouse, in vivo, ip, 12 mg/kg; cited from earlier work
in vivo [12] = details: mouse, po, 10 mg/kg
EBOV/Mak-C05 = details: rhesus monkey, in vivo; cited from earlier work
EBOV [13] = tested on: EBOV; parameters: species or system mice; details: mouse, in vivo
[14] = rat, in vivo; cited from earlier work

## Cc1cccc(/C=N/Nc2cc(N3CCOCC3)nc(OCCc3ccccn3)n2)c1 [Apilimod]
EBOV [1]
  IC50: 0.17 µM
EBOV/Mak [2]
  IC50: 0.17 µM
[3]; 70 mg
  Cmax: 260 nM

## O=C1CCc2ccc(OCCCCN3CCN(c4cccc(Cl)c4Cl)CC3)cc2N1 [Aripiprazole]
EBOV [4]; ip, 20 mg/kg
  Survival (%): 10 ^1%
  somnolence in treated mice: extremely somnolent
[3]; 30 mg
  Cmax: 1010 nM

## CC[C@H]1OC(=O)[C@H](C)[C@@H](O[C@H]2C[C@@](C)(OC)[C@@H](O)[C@H](C)O2)[C@H](C)[C@@H](O[C@@H]2O[C@H](C)C[C@H](N(C)C)[C@H]2O)[C@](C)(O)C[C@@H](C)CN(C)[C@H](C)[C@@H](O)[C@]1(C)O [Azithromycin]
EBOV [1]
  IC50: 10.8 µM
EBOV/Mak [2]
  IC50: 10.8 µM
EBOV [4]; ip, 100 mg/kg
  Survival (%): 10, 30, 60 ^2%
[3]; 500 mg
  Cmax: 640 nM

## CC(C)COCC(CN(Cc1ccccc1)c1ccccc1)N1CCCC1 (stereo not drawn) [Bepridil]
EBOV [5]
  mi (hill coefficient of drug i applied in combination): 4.043
EBOV [1]
  IC50: ~4 µM
In vivo [6]; 150 mg/kg
  MRT: 6 h
  half-life: 0.5 h
In vivo [6]; 500 mg/kg
  MRT: 9 h
  half-life: 0.5 h
EBOV/Mak [2]
  Hill coefficient: 4.859
  IC50: 5.86 µM
[7]
  tolerability: well tolerated
[8]
  Oral LD50: 2069 mg/kg
VSV-EBOV-GPΔ-Luc
  inhibitory activity over time (stability in V8): maintained inhibitory activity over 15 days
EBOV/Mak [9]
  possible loss of potency: < 2 fold
EBOV [4]; ip, 12 mg/kg
  Survival (%): 100% and 100 ^3%
  survival: 90-100%
EBOV [10]
  IC50: 3.21 µM
[11]
  Cmax: ~3000 nM
  Cmax obtained relative to prediction, fold higher: ~ 1.8 fold
MARV
  Survival (%): 90 ^4%
  mice protected: 80%
[3]; 400 mg
  Cmax: 2430 nM

## CCN(CC)CCOc1ccc(C(=C(Cl)c2ccccc2)c2ccccc2)cc1 [Clomiphene]
EBOV [4]; ip, 12 mg/kg
  protection: 60% and 40%
EBOV [4]; po, 21 mg/kg
  protection: no mice were protected
[3]; 50 mg
  Cmax: 50 nM

## CC(=O)c1ccc2c(c1)N(CCCN1CCC(CCO)CC1)c1ccccc1S2 [Piperacetazine]
EBOV [1]
  IC50: 5.44 µM
EBOV/Mak [2]
  IC50: 7.58 µM
EBOV [10]
  IC50: 3.3 µM

## CN[C@H]1CC[C@@H](c2ccc(Cl)c(Cl)c2)c2ccccc21 [Sertraline]
EBOV [5]
  mi (hill coefficient of drug i applied in combination): 2.736 and 1.996
In vivo [12]
  Cmax: 430 nM
In vivo [6]; 30 mg/kg
  MRT: 11 h
  half-life: 1 h
In vivo [6]; 60 mg/kg
  MRT: 5 h
  half-life: 1 h
EBOV/Mak [2]
  Hill coefficient: 1.628
[7]
  tolerability: well tolerated
[8]
  Oral LD50: 336 mg/kg
EBOV/Mak-C05
  protection: not effective; also recorded: did not protect macaques
EBOV [4]; ip, 10 mg/kg
  Survival (%): 70%
[11]
  Cmax: ~1200 nM
  Cmax obtained relative to prediction, fold higher: ~ 1.2 fold
EBOV [13]
  predicted survival: ~ 35%
[3]; 200 mg
  Cmax: 540 nM

## CN(C)CCOc1ccc(/C(=C(/CCCl)c2ccccc2)c2ccccc2)cc1 [Toremifene]
EBOV [5]
  mi (hill coefficient of drug i applied in combination): 1.628
EBOV [1]
  IC50: 1.8 µM
In vivo [12]
  Cmax: 160 nM
In vivo [6]; 100 mg/kg
  Cmax: 498 ng/mL
  MRT: 6 h
  half-life: 0.5 h
In vivo [6]; 200 mg/kg
  Cmax: 1300 ng/mL
  MRT: 16 h
  half-life: 0.2 h
EBOV/Mak [2]
  Hill coefficient: 3.057
  IC50: 3.64 µM
[14]
  Oral LD50: 3000 mg/kg
[7]
  tolerability: well tolerated
VSV-EBOV-GPΔ-Luc
  inhibitory activity over time (stability in V8): began to lose activity after ~1 week
EBOV [4]; ip, 60 mg/kg
  Survival (%): 50%
EBOV [10]
  IC50: 0.03 µM
[11]
  Cmax: ~4400 nM
EBOV [13]
  approximated protection of infected mice: ~ 50%
  estimated survival: ~ 50%
  predicted survival: ~ 7%
[3]; 60 mg
  Cmax: 1970 nM
